Measurements from patent publication US9434711B2 (Janssen Pharmaceutica, NV, priority 2007, dated 2016).

Biological target: canine TRPM8 (Canis lupus familiaris, UniProt Q1A7N1)
Test: In Vitro Canine TRPM8 Functional Assay (Ca2+ fluorescence, icilin activation)
Assay type: cell-based
Settings: for IC50: HEK293 cells stably expressing canine TRPM8, icilin activation, eight-point dose-response, read-out: IC50; for inhibition at 0.5 µM: compound at 0.5 μM, read-out: % Inh @ 0.5
Experimental: The functional activity of compounds of the formula (I) was determined by measuring changes in intracellular calcium concentration using a Ca^2+-sensitive fluorescent dye. The changes in fluorescent signal were monitored by a fluorescence plate reader, either a FLIPR™ (Molecular Devices) or FDSS (Hamamatsu).
At 24 hrs prior to assay, HEK293 cells stably expressing canine TRPM8 were seeded in culture medium in black wall, clear-base poly-D-lysine coated 384-well plates (BD Biosciences, NJ, USA) and grown overnight in 5% CO2 at 37° C. On assay day, growth media was removed and cells were loaded with Calcium 3 Dye (Molecular Devices) for 35 min at 37° C., under 5% CO2 and then for 25 min at room temperature and atmosphere. Subsequently, cells were tested for agonist-induced increases in intracellular Ca^2+ levels using FLIPR™ or FDSS. Cells were challenged with a compound of the Formula (I) (at varying concentrations) and intracellular Ca^2+ was measured for 5 min prior to the addition of icilin to all wells to achieve a final concentration that produces approximately an 80% maximal response. EC50 or IC50 values for compounds of the present invention were determined from eight-point dose-response studies. Curves were generated using the average of quadruplicate wells for each data point.

[1] = canine TRPM8, icilin activation

Chain of canine TRPM8 (Q1A7N1 1-1104): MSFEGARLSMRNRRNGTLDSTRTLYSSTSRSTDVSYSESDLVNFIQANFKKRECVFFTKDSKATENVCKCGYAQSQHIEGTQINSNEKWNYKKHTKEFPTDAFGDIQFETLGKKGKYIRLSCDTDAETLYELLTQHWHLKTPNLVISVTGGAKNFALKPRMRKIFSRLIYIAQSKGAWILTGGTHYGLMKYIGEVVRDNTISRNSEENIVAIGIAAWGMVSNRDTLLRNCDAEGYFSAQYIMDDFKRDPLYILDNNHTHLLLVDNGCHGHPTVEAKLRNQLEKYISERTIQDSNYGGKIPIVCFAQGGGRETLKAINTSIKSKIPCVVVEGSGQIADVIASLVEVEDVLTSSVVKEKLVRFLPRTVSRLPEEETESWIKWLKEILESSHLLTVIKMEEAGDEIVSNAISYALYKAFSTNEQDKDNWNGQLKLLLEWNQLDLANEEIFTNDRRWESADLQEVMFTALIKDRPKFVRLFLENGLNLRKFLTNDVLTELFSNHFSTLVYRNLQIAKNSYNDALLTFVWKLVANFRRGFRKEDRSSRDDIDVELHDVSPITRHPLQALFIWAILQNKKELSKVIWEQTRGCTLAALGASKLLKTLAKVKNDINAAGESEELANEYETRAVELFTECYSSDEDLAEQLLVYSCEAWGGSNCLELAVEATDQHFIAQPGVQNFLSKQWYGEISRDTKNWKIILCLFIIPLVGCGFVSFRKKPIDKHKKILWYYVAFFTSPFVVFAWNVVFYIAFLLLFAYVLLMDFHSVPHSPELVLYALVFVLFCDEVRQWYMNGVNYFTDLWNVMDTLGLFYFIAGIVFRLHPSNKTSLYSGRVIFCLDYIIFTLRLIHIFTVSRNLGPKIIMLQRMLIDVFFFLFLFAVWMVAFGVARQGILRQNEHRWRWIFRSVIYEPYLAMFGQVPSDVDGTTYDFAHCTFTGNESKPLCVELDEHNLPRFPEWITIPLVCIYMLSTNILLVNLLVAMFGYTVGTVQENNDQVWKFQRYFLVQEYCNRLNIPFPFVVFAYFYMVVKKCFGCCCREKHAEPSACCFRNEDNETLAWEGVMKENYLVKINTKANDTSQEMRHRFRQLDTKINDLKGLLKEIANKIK

Structure (SMILES)	IC50 [nM]	inhibition at 0.5 µM [1] [%]	inhibition at 0.2 µM (compound at 0.2 μM, canine TRPM8, icilin activation, read-out: % Inh @ 0.2) [%]
Cc1c(N(Cc2ccc(F)c(C(F)(F)F)c2)S(=O)(=O)c2cccnc2)sc2ccccc12 [Compound 39, N-(4-Fluoro-3-trifluoromethyl-benzyl)-N-(3-methyl-benzo[b]thiophen-2-yl)-pyridine-3-sulfonamide]	3.9	101	–
CCS(=O)(=O)N(Cc1ccc(F)c(C(F)(F)F)c1)c1sc2ccccc2c1C [Compound 40, N-(4-Fluoro-3-trifluoromethyl-benzyl)-N-(3-methyl-benzo[b]thiophen-2-yl)-ethanesulfonamide]	13.7	97	–
CCS(=O)(=O)N(Cc1ccc(F)c(F)c1)c1sc2ccccc2c1C [Compound 41, N-(3,4-Difluoro-benzyl)-N-(3-methyl-benzo[b]thiophen-2-yl)-ethanesulfonamide]	5.4	99	–
CCS(=O)(=O)N(Cc1ccc(OC(F)(F)F)cc1)c1sc2ccccc2c1C [Compound 42, N-(3-Methyl-benzo[b]thiophen-2-yl)-N-(4-trifluoromethoxy-benzyl)-ethanesulfonamide]	10.6	100	–
CCS(=O)(=O)N(Cc1ccc(F)c(C(F)(F)F)c1)c1cc2ccccc2s1 [Compound 43, N-(Benzo[b]thiophen-2-yl)-N-(4-fluoro-3-trifluoromethyl-benzyl)-ethanesulfonamide]	25	94	–
Cc1c(N(Cc2ccc(F)c(F)c2)S(=O)(=O)N(C)C)sc2ccccc12 [Compound 44, N-(3,4-Difluoro-benzyl)-N-(3-methyl-benzo[b]thiophen-2-yl)-N′,N′-dimethylsulfamide]	7	98	–
CS(=O)(=O)N(Cc1ccc(F)c(C(F)(F)F)c1)c1cc2ccccc2s1 [Compound 45, N-(Benzo[b]thiophen-2-yl)-N-(4-fluoro-3-trifluoromethyl-benzyl)-methanesulfonamide]	52	–	97
O=S(=O)(c1ccccc1)N(Cc1ccc(Cl)cc1)c1cc2ccccc2s1 [Compound 46, N-(Benzo[b]thiophen-2-yl)-N-(4-chloro-benzyl)-benzenesulfonamide]	84	99	–
COc1ccccc1CN(c1cc2ccccc2s1)S(=O)(=O)c1ccccc1 [Compound 47, N-(Benzo[b]thiophen-2-yl)-N-(2-methoxy-benzyl)-benzenesulfonamide]	112	97	–
COc1cccc(CN(c2cc3ccccc3s2)S(=O)(=O)c2ccccc2)c1 [Compound 48, N-(Benzo[b]thiophen-2-yl)-N-(3-methoxy-benzyl)-benzenesulfonamide]	79	98	–
COc1ccc(CN(c2cc3ccccc3s2)S(=O)(=O)c2ccccc2)cc1 [Compound 49, N-(Benzo[b]thiophen-2-yl)-N-(4-methoxy-benzyl)-benzenesulfonamide]	170	90	–
O=S(=O)(c1ccccc1)N(Cc1ccccc1F)c1cc2ccccc2s1 [Compound 50, N-(Benzo[b]thiophen-2-yl)-N-(2-fluoro-benzyl)-benzenesulfonamide]	66	99	–
O=[N+]([O-])c1cccc(CN(c2cc3ccccc3s2)S(=O)(=O)c2ccccc2)c1 [Compound 51, N-(Benzo[b]thiophen-2-yl)-N-(3-nitro-benzyl)-benzenesulfonamide]	78	98	–
O=S(=O)(c1ccccc1)N(Cc1ccccn1)c1cc2ccccc2s1 [Compound 52, N-(Benzo[b]thiophen-2-yl)-N-(pyridin-2-ylmethyl)-benzenesulfonamide]	116	99	–
O=S(=O)(c1ccccc1)N(Cc1cccnc1)c1cc2ccccc2s1 [Compound 53, N-(Benzo[b]thiophen-2-yl)-N-(pyridin-3-ylmethyl)-benzenesulfonamide]	164	97	–
